Results as given in ChEMBL document CHEMBL5625171, “Design, synthesis, and biological studies of novel sulfonamide derivatives as farnesoid X receptor agonists” (Eur J Med Chem, 2023).

Experiments:
[1] = Sub-acute toxicity in ICR mouse assessed as animal death at 500 mg/kg, po qd treated for 10 days; format: organism-based; settings: in vivo, 240 h, time 10 day
[2] = Sub-acute toxicity in ICR mouse assessed as abnormal behaviour at 500 mg/kg, po qd treated for 10 days; format: organism-based; settings: in vivo, 240 h, time 10 day
[3] = Sub-acute toxicity in ICR mouse assessed as change in serum AST level at 500 mg/kg, po qd treated for 10 days; format: organism-based; settings: in vivo, 240 h, time 10 day
[4] = Sub-acute toxicity in ICR mouse assessed as change in serum ALT level at 500 mg/kg, po qd treated for 10 days; format: organism-based; settings: in vivo, 240 h, time 10 day
[5] = Sub-acute toxicity in ICR mouse assessed as change in serum ALP level at 500 mg/kg, po qd treated for 10 days; format: organism-based; settings: in vivo, 240 h, time 10 day
[6] = Sub-acute toxicity in ICR mouse assessed as change in serum TBIL level at 500 mg/kg, po qd treated for 10 days; format: organism-based; settings: in vivo, 240 h, time 10 day
[7] = Sub-acute toxicity in ICR mouse assessed as change in serum DBIL level at 500 mg/kg, po qd treated for 10 days; format: organism-based; settings: in vivo, 240 h, time 10 day
[8] = Sub-acute toxicity in ICR mouse assessed as change in serum TG level at 500 mg/kg, po qd treated for 10 days; format: organism-based; settings: in vivo, 240 h, time 10 day
[9] = Sub-acute toxicity in ICR mouse assessed as change in serum TC level at 500 mg/kg, po qd treated for 10 days; format: organism-based; settings: in vivo, 240 h, time 10 day
[10] = Sub-acute toxicity in ICR mouse assessed as change in serum creatinine level at 500 mg/kg, po qd treated for 10 days; format: organism-based; settings: in vivo, 240 h, time 10 day
[11] = Sub-acute toxicity in ICR mouse assessed as change in serum urea level at 500 mg/kg, po qd treated for 10 days; format: organism-based; settings: in vivo, 240 h, time 10 day
[12] = Sub-acute toxicity in ICR mouse assessed as anomaly in heart at 500 mg/kg, po qd treated for 10 days; format: organism-based; settings: in vivo, 240 h, time 10 day
[13] = Sub-acute toxicity in ICR mouse assessed as anomaly in liver at 500 mg/kg, po qd treated for 10 days; format: organism-based; settings: in vivo, 240 h, time 10 day
[14] = Sub-acute toxicity in ICR mouse assessed as anomaly in spleen at 500 mg/kg, po qd treated for 10 days; format: organism-based; settings: in vivo, 240 h, time 10 day
[15] = Sub-acute toxicity in ICR mouse assessed as anomaly in lung at 500 mg/kg, po qd treated for 10 days; format: organism-based; settings: in vivo, 240 h, time 10 day
[16] = Sub-acute toxicity in ICR mouse assessed as anomaly in kidney at 500 mg/kg, po qd treated for 10 days; format: organism-based; settings: in vivo, 240 h, time 10 day
[17] = biological target: T1, Bile acid receptor (Homo sapiens, UniProt Q96RI1); assay: Agonist activity at FXR LBD (unknown origin) using fluorescein-SRC2-2 as substrate incubated for 3 hrs by TR-FRET assay
T1 sequence (Q96RI1 whole entry): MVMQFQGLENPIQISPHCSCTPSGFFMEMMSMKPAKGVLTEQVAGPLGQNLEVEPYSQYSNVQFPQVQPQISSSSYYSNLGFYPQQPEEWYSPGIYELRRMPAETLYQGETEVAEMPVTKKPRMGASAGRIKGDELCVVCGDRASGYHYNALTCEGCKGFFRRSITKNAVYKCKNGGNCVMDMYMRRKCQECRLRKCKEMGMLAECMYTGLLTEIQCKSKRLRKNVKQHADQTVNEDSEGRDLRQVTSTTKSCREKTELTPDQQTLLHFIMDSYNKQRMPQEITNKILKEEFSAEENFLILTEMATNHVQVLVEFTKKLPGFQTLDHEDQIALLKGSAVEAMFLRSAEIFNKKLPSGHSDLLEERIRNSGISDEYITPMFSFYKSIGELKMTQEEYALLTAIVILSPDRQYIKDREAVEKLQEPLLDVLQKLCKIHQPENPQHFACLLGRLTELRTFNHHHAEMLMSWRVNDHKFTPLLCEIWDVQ

| Structure (SMILES) | EC50 [17] [µM] | further results |
| --- | --- | --- |
| CC(C)CN(c1ccc(-c2ccc(OCC(=O)O)c(F)c2)cc1)S(=O)(=O)c1c(Cl)cccc1Cl |  | Activity [1]: Non-Toxic; Activity [2]: Non-Toxic; Activity [3]: Non-Toxic; Activity [4]: Non-Toxic; Activity [5]: Non-Toxic; Activity [6]: Non-Toxic; Activity [7]: Non-Toxic; Activity [8]: Non-Toxic; Activity [9]: Non-Toxic; Activity [10]: Non-Toxic; Activity [11]: Non-Toxic; Activity [12]: Non-Toxic; Activity [13]: Non-Toxic; Activity [14]: Non-Toxic; Activity [15]: Non-Toxic; Activity [16]: Non-Toxic |
| CC(C)CN(c1ccc(-c2ccc(C(=O)NC3CC3)cc2)cc1)S(=O)(=O)c1c(Cl)cccc1Cl | > 10 |  |
| CC(C)CN(c1ccc(-c2ccc(OCC(=O)O)c(F)c2)cc1)S(=O)(=O)C1CCCCC1 | > 10 |  |
| O=C(O)c1cccc(-c2ccc(N(CC3CC3)S(=O)(=O)c3c(Cl)cccc3Cl)cc2)c1 | > 10 |  |
| CC(C)CN(c1ccc(COc2cccc(CC(=O)O)c2)cc1)S(=O)(=O)c1c(Cl)cccc1Cl | > 10 |  |
| Cc1ccc(S(=O)(=O)N(CC(C)C)c2ccc(-c3ccc(C(=O)O)cc3)cc2)cc1 | > 10 |  |
| CC#CC(CC(=O)O)c1ccc(OCc2ccc(N(CC(C)C)S(=O)(=O)c3c(Cl)cccc3Cl)cc2)cc1 (stereo not given) | > 10 |  |
| CC(C)CN(c1ccc(-c2cccc(C(=O)O)c2)cc1)S(=O)(=O)c1c(Cl)cccc1Cl | > 10 |  |
| CC(C)CN(c1ccc(-c2ccc(C(N)=O)cc2)cc1)S(=O)(=O)c1c(Cl)cccc1Cl | > 10 |  |
| CC(C)CN(c1ccc(-c2cccc(CC(=O)O)c2)cc1)S(=O)(=O)c1c(Cl)cccc1Cl | > 10 |  |
| Cc1ccc(S(=O)(=O)N(CC(C)C)c2ccc(-c3ccc(CCC(=O)O)cc3)cc2)cc1 | > 10 |  |
| CC(C)CN(c1ccc(COc2ccc3c(CC(=O)O)coc3c2)cc1)S(=O)(=O)c1c(Cl)cccc1Cl | > 10 |  |

Further lines, with some results ahead:

| EC50 [17] [µM] | Structure (SMILES) | further results |
| --- | --- | --- |
| 3.5 | CC(C)CN(c1ccc(-c2ccc(C(=O)O)cc2)cc1)S(=O)(=O)c1c(Cl)cccc1Cl |  |
| > 10 | CC(C)CN(c1ccc(-c2ccc(OC(C)(C)C(=O)O)c(F)c2)cc1)S(=O)(=O)c1c(Cl)cccc1Cl |  |
| > 10 | Cc1ccc(S(=O)(=O)N(CC(C)C)c2ccc(-c3ccc(OCC(=O)O)c(F)c3)cc2)cc1 |  |
| > 10 | CC(C)CN(c1ccc(-c2cccc(C3(C(=O)O)CC3)c2)cc1)S(=O)(=O)c1c(Cl)cccc1Cl |  |
| > 10 | CC(C)CN(c1ccc(-c2ccc(C3(C(=O)O)CC3)cc2)cc1)S(=O)(=O)c1c(Cl)cccc1Cl |  |
| 6.5 | CC(C)CN(c1ccc(-c2ccc(CCC(=O)O)cc2)cc1)S(=O)(=O)c1c(Cl)cccc1Cl |  |
| 8.7 | CC(C)CN(c1ccc(-c2ccc(OC(C)C(=O)O)c(F)c2)cc1)S(=O)(=O)c1c(Cl)cccc1Cl (stereo not given) |  |
| 0.89 | CC(C)CN(c1ccc(-c2ccc(OCC(=O)O)cc2)cc1)S(=O)(=O)c1c(Cl)cccc1Cl |  |
